Source: ChEMBL document CHEMBL1149406, “Isolation and cholinesterase-inhibition studies of sterols from Haloxylon recurvum” (Bioorg Med Chem Lett, 2006)

Biological target: Acetylcholinesterase (Electrophorus electricus, UniProt O42275)
Assay: Inhibitory activity against AChE from electric eel

Acetylcholinesterase, sequence (O42275 whole entry): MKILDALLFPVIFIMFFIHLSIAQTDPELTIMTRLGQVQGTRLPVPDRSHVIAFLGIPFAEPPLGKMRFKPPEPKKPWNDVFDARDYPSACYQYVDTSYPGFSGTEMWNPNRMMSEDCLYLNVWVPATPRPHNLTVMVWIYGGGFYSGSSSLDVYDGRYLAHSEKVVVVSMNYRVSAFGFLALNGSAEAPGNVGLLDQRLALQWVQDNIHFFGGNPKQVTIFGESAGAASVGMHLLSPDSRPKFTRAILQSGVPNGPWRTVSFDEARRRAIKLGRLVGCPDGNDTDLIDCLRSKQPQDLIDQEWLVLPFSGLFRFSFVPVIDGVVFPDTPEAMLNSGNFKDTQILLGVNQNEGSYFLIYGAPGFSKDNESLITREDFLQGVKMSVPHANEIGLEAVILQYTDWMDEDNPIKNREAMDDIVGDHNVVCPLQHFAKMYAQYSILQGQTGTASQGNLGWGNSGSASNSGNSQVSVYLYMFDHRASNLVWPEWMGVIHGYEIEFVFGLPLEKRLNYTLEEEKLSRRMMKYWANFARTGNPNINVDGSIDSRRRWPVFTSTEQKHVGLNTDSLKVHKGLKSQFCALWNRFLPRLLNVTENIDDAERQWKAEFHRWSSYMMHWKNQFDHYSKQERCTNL

Question: Which Ki does the source give for `CCC(CC[C@@H](C)[C@H]1CC[C@H]2[C@@H]3C=CC4(O)C[C@@H](O)CC[C@]4(C)[C@H]3CC[C@]12C)C(C)C` (some centres undefined) here?
Answer: 4 µM

Question: What does the source list for `CCC(CC[C@@H](C)[C@H]1CC[C@H]2C3=CC(O)C4(O)C[C@@H](O)CC[C@]4(C)[C@H]3CC[C@]12C)C(C)C` (some centres undefined)?
Answer: IC50: 13.7 µM; Ki: 12.6 µM

Question: `CC[C@H](/C=C/[C@@H](C)[C@H]1CC[C@H]2[C@@H]3C=CC4C[C@@H](O)CC[C@]4(C)C3=CC[C@]12C)C(C)C` (some centres undefined) was tested. Which IC50 did it give?
Answer: 19.2 µM

Question: What about the Ki of the same compound?
Answer: 20.6 µM

Question: Which results are given for `CC[C@H](/C=C/[C@@H](C)[C@H]1CC[C@@H]2[C@]1(C)CC=C1[C@]23C=C[C@]2(C[C@@H](O)CC[C@]12C)OO3)C(C)C`?
Answer: IC50: 26.4 µM; Ki: 25.5 µM

Question: How did the IC50 turn out when `CC[C@H](C[C@@H](O)[C@@H](C)[C@H]1CC[C@H]2[C@@H]3C[C@@H](O)[C@@]4(O)C[C@@H](O)C[C@H](O)[C@]4(C)[C@H]3CC[C@]12C)C(C)C` was run?
Answer: 17.2 µM

Question: And the Ki?
Answer: 17 µM

Question: Which IC50 does the source give for `CC[C@H](C[C@@H](O)[C@@H](C)[C@H]1CCC2C3CC=C4C[C@@H](O)C[C@H](O)[C@]4(C)C3CC[C@@]21C)C(C)C` (some centres undefined) [HALOXYSTEROL A] here?
Answer: 8.3 µM

Question: What about the Ki of the same compound?
Answer: 7.6 µM

Question: Which results are given for `CC[C@H](C[C@@H](O)[C@@H](C)[C@H]1CCC2C3C=CC4=C[C@@H](O)C[C@H](O)[C@]4(C)C3CC[C@@]21C)C(C)C` (some centres undefined) [HALOXYSTEROL B]?
Answer: IC50: 0.89 µM; Ki: 0.85 µM

Question: `CC[C@H](C[C@@H](O)[C@@H](C)[C@H]1CCC2C3CCC4=CC(=O)CC[C@]4(C)C3=CC[C@@]21C)C(C)C` (some centres undefined) [HALOXYSTEROL C] was tested. Which IC50 did it give?
Answer: 1 µM

Question: And the Ki?
Answer: 1.1 µM

Question: `CC[C@H](CC[C@@H](C)[C@H]1CC[C@H]2[C@@H]3CCC4=C[C@@H](O)CC[C@]4(C)[C@H]3CC[C@]12C)C(C)C` [LAWSARITOL] was tested. Which IC50 did it give?
Answer: 15.2 µM

Question: What about the Ki of the same compound?
Answer: 16.1 µM

Biological target: Butyrylcholinesterase (Equus caballus, UniProt Q9N1N9)
Assay: Inhibitory activity against BuChE from horse serum

Butyrylcholinesterase, sequence (Q9N1N9 whole entry): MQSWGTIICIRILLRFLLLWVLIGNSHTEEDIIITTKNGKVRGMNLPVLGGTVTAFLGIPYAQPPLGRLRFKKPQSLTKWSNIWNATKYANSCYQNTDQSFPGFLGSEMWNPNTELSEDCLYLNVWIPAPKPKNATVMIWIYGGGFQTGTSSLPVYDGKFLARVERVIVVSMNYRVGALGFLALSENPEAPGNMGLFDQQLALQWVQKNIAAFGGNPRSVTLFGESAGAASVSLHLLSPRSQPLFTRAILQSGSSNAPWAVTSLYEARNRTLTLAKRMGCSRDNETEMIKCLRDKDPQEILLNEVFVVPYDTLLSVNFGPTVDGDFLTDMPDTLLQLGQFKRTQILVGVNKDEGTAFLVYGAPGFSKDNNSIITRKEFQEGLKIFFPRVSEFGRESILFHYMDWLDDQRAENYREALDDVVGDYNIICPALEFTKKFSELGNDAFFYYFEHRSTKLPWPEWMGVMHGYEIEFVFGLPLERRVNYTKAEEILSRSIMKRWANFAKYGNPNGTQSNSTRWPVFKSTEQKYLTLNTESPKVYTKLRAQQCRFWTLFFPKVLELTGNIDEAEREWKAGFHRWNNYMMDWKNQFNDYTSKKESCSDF

Question: For `CCC(CC[C@@H](C)[C@H]1CC[C@H]2[C@@H]3C=CC4(O)C[C@@H](O)CC[C@]4(C)[C@H]3CC[C@]12C)C(C)C` (some centres undefined), which Ki is on record?
Answer: 4.2 µM

Question: For `CCC(CC[C@@H](C)[C@H]1CC[C@H]2C3=CC(O)C4(O)C[C@@H](O)CC[C@]4(C)[C@H]3CC[C@]12C)C(C)C` (some centres undefined), which IC50 is on record?
Answer: 2 µM

Question: What about the Ki of the same compound?
Answer: 2.5 µM

Question: With `CC[C@H](/C=C/[C@@H](C)[C@H]1CC[C@H]2[C@@H]3C=CC4C[C@@H](O)CC[C@]4(C)C3=CC[C@]12C)C(C)C` (some centres undefined) as the compound, how does the IC50 read?
Answer: 4.5 µM

Question: And the Ki?
Answer: 4.6 µM

Question: How did the IC50 turn out when `CC[C@H](/C=C/[C@@H](C)[C@H]1CC[C@@H]2[C@]1(C)CC=C1[C@]23C=C[C@]2(C[C@@H](O)CC[C@]12C)OO3)C(C)C` was run?
Answer: 6.9 µM

Question: What about the Ki of the same compound?
Answer: 5 µM

Question: Which IC50 does the source give for `CC[C@H](C[C@@H](O)[C@@H](C)[C@H]1CC[C@H]2[C@@H]3C[C@@H](O)[C@@]4(O)C[C@@H](O)C[C@H](O)[C@]4(C)[C@H]3CC[C@]12C)C(C)C` here?
Answer: 2.5 µM

Question: And the Ki?
Answer: 2.2 µM

Question: Which IC50 does the source give for `CC[C@H](C[C@@H](O)[C@@H](C)[C@H]1CCC2C3CC=C4C[C@@H](O)C[C@H](O)[C@]4(C)C3CC[C@@]21C)C(C)C` (some centres undefined) [HALOXYSTEROL A] here?
Answer: 4.7 µM

Question: What about the Ki of the same compound?
Answer: 4.5 µM

Question: Which IC50 does the source give for `CC[C@H](C[C@@H](O)[C@@H](C)[C@H]1CCC2C3C=CC4=C[C@@H](O)C[C@H](O)[C@]4(C)C3CC[C@@]21C)C(C)C` (some centres undefined) [HALOXYSTEROL B] here?
Answer: 2.3 µM

Question: What about the Ki of the same compound?
Answer: 2.5 µM

Question: `CC[C@H](C[C@@H](O)[C@@H](C)[C@H]1CCC2C3CCC4=CC(=O)CC[C@]4(C)C3=CC[C@@]21C)C(C)C` (some centres undefined) [HALOXYSTEROL C] was tested. Which IC50 did it give?
Answer: 17.8 µM

Question: And the Ki?
Answer: 18 µM

Question: With `CC[C@H](CC[C@@H](C)[C@H]1CC[C@H]2[C@@H]3CCC4=C[C@@H](O)CC[C@]4(C)[C@H]3CC[C@]12C)C(C)C` [LAWSARITOL] as the compound, how does the IC50 read?
Answer: 3.9 µM

Question: What about the Ki of the same compound?
Answer: 3.7 µM
